The values below come from US20080070971A1, “Medical Use of Bilirubin and its Structural Analogues” (priority 2006, published 2008).

In one experiment the target is T1, acetylcholinesterase (Homo sapiens, UniProt P22303).
T1 construct: purchased SigmaAldrich C0663
In words: Acetylcholinesterase activity by choline release. The experiment is classed as biochemical. The settings on record: at high bilirubin concentrations (FIG. 2). Here is the method: Since bilirubin itself gives an absorption peak at 460 nm, which interferes with the cholinesterase assay procedures in many standard assay kits, a modified method was developed. The acetylcholinesterase activity was determined by measuring the quantity of choline release from acetylcholine:
Briefly, after 30 minutes reaction in the above acetylcholine-enzyme solution at pH=7.8, in the absence or presence of bilirubin, the reaction was stopped by heating to about 100° C. in boiling water. The solution was then cooled down to 37° C. Residual bilirubin was neutralized by titrating with H2O2. The amount of choline was then determined by the following choline oxidase assay method provided by SigmaAldrich (Cat.# C5896): […]

Experiment [1] deals with T2, isocitrate dehydrogenase (ICDH) (Sus scrofa, UniProt P33198).
T2 construct: purchased SigmaAldrich I2516
T2 sequence (P33198 9-421): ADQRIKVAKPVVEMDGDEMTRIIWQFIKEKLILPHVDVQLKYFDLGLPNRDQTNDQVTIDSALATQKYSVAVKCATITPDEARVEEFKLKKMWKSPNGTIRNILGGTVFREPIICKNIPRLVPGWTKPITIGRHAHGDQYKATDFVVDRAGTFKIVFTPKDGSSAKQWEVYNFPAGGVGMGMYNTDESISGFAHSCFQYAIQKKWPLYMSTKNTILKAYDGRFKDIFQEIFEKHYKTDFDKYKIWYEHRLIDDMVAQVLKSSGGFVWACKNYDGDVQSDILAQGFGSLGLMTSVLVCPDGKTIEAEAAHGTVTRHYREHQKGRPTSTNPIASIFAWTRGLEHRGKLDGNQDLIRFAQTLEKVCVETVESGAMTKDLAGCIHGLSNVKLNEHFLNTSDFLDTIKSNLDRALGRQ
The experiment is described as follows: Isocitrate dehydrogenase inhibition. The experiment is classed as biochemical. The settings on record: concentration equivalent to the moderate level of serum bilirubin (FIG. 7). Here is the method: NAD (Cat.#N1511), NADH (Cat. N9410), NADP (Cat.#N8610) and NADPG (Cat. #N7505), HMG-CoA (Cat.#H6132) were purchased from Sigma Aldrich (St. Louis, Mo.). NADP-linked isocitrate dehydrogenase was also obtained from SigmaAldrich (Cat.#I2516). Other liver enzymes were prepared as follows.

Experiment [2] has as its system histone deacetylase (HDAC), HeLa cell lysate. In words: Histone deacetylase (HDAC) assay. The experiment is classed as biochemical. Here is the method:
Assay of histone decaetylase (HDAC). The activity of HDAC was measured according to the procedure provided by SigmaAldrich (Histone Deacetylase Assay Kit, Cat.# CS1010). HeLa cel lysate provided by the assay kit was used as a source for HDAC activity in the inhibition testing.

The test system of the next experiment is Human carcinoma cells. The experiment is described as follows: Cancer cell growth by cell counting. Format: cell-based. The settings on record: concentrations above 10 mg/L (FIG. 10). Here is the method:
Cell growth. Human carcinoma cells were cultured continuously in a medium containing ferrous sulfate, kept in a humidified incubator at 37° C. Cancer cells were seeded in triplicate at a density of 10,000 cells/3.5-cm culture dish overnight before being subjected to treatments. Growth was estimated by counting cells in a hemocytometer after staining cells with trypan blue. Cell yields from cultures maintained in seeding medium served as growth controls for computing the relative cell growth.

A short description of experiment [3]: Oral bilirubin supplementation, blood chemistry. Format: in vivo. As to the method:
2-6 bilirubin pills (10 mg/capsule)were ingested daily as a dietary supplement over time period from 3-12 months. Blood samples were taken by medical professionals and blood chemistry, including serum bilirubin level, total cholesterol, triglyceride, LDL-cholesterol, and HDL cholesterol were analyzed by independent medical testing laboratories.

[4] abbreviates: 2-6 pills (10 mg/capsule) daily, 3-12 months.
Setting [5] is: at higher serum bilirubin level (FIG. 12).

T1 sequence (P22303 32-617 isoform P22303-2 limits assumed): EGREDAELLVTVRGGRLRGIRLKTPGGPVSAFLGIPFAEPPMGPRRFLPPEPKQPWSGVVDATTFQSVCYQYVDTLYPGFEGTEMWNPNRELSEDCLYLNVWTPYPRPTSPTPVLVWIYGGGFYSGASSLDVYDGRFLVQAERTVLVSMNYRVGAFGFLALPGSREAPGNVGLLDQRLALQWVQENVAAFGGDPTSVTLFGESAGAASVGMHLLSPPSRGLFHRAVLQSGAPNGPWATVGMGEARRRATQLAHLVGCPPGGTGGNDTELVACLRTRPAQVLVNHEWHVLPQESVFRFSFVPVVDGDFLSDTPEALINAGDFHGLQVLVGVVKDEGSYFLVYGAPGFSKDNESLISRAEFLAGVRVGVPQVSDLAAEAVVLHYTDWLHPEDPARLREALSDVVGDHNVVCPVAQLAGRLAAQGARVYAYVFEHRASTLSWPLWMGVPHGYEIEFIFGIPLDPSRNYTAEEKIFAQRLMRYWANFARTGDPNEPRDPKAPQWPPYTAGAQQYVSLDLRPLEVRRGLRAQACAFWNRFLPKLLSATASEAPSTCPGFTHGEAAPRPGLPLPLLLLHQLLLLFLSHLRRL

Consider `C=CC1=C(C)C(=Cc2[nH]c(Cc3[nH]c(C=C4NC(=O)C(C)=C4C=C)c(C)c3CCC(=O)O)c(CCC(=O)O)c2C)NC1=O` [bilirubin, 2,7,13,17-tetramethyl-1,19-dioxo-3,18-divinyl-1,10,19,22,23,24-hexahydro-21H-biline-8,12-dipropanoic acid], for which the acetylcholinesterase activity result at acetylcholinesterase is listed as “completely eliminated”. Besides, the “inhibition of isocitrate dehydrogenase” value in experiment [1] is “strongly suppressed”. Also, the “50% inhibition concentration (IC50)” value in experiment [2] (substrate concentration 5 μM) was determined as 16.5 µg/mL. The “50% inhibition concentration (IC50)” value in experiment [2] (substrate concentration 50 μM) is 40 µg/mL. The relative cell growth entry in the experiment on Human carcinoma cells is “largely suppressed”. In experiment [3] (setting [4]), the total cholesterol concentration result is reported as “varied inversely” and the “total serum bilirubin level” value was “effectively increased”. Besides, in experiment [3] (setting [5]), the LDL-cholesterol level entry is on record as “lower” and the triglycerol level entry is “lower”. For the same compound, the fecal fat content entry in experiment [3] (bilirubin treatment) is given as “substantially increased”.
